According to the NIST ThermoML archive (doi:10.1016/j.jct.2004.04.010):
Numbers after ± are expanded uncertainties.

Experiment: mn = molality of the nth substance listed, in mol/kg
Settings: 298.15 K, 101.3 kPa, Liquid

SMILES	mass density (m1 = 0.2) [kg/m3]	mass density (m1 = 0.4) [kg/m3]	mass density (m1 = 0.6) [kg/m3]	mass density (m1 = 0.8) [kg/m3]	mass density (m1 = 1) [kg/m3]	mass density (m1 = 1.2) [kg/m3]	mass density (m1 = 0.015) [kg/m3]	mass density (m1 = 0.03) [kg/m3]	mass density (m1 = 0.05) [kg/m3]	mass density (m1 = 0.075) [kg/m3]	mass density (m1 = 0.1) [kg/m3]
O=C[C@@H](O)[C@H](O)[C@H](O)CO [D-(-)-arabinose] + O	1008.06 ± 0.2	1018.64 ± 0.22	1028.67 ± 0.23	1038.38 ± 0.24	1047.69 ± 0.24	1056.36 ± 0.27					
O=C[C@H](O)[C@@H](O)[C@@H](O)[C@H](O)CO [(+)-galactose] + O	1010.68 ± 0.22	1023.7 ± 0.28	1036.15 ± 0.33	1047.98 ± 0.39	1059.4 ± 0.45	1070.22 ± 0.5					
[Cl-].[Cs+] [cesium chloride] + O							998.969 ± 0.14	1000.88 ± 0.14	1003.43 ± 0.14	1006.61 ± 0.14	1009.77 ± 0.15
O=C[C@H](O)[C@@H](O)[C@H](O)CO [D-xylose] + O	1007.72 ± 0.21	1017.95 ± 0.26	1027.8 ± 0.3	1037.28 ± 0.35	1046.38 ± 0.39	1055.19 ± 0.44					
